Results published in paper PMC12586182 (Frontiers in Oncology, 2025).
pIC50: −log10 of the molar value.

How the values were obtained:
TBK1 = target: T1, TBK1 (Homo sapiens, UniProt Q9UHD2); experiment: Kinase panel profiling at 1 µmol/L (mobility shift assay, Carna); type: biochemical; conditions: 1 µmol/L of BTK inhibitor
T1 construct: purchased Carna Biosciences
T1 sequence (Q9UHD2 1-729): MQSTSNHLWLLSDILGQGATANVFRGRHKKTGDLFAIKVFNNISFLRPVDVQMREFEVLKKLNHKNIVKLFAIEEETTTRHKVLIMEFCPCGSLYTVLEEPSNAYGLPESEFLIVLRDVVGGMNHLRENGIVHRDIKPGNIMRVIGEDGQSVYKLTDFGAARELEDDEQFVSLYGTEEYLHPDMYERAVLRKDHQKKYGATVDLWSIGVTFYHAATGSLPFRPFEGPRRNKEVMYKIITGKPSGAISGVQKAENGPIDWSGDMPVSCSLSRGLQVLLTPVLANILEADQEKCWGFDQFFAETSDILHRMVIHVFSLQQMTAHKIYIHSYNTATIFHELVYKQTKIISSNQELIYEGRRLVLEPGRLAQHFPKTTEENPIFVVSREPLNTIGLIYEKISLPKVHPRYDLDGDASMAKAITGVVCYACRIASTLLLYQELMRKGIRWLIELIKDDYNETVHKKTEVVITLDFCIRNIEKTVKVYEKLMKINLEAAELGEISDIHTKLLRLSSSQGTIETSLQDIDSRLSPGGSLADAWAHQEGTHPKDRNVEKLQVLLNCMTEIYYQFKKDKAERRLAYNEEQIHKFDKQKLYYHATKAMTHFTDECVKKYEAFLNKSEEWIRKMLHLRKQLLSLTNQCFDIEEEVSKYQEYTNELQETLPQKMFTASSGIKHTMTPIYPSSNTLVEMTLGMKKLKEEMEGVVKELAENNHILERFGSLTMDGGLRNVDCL

MRCKβ = target: T2, MRCKβ (Homo sapiens, UniProt Q9Y5S2); experiment: as above; type: biochemical; conditions: 1 µmol/L of BTK inhibitor
T2 construct: purchased Carna Biosciences

CaMK4 = target: T3, CaMK4 (Homo sapiens, UniProt Q16566); experiment: as above; type: biochemical; conditions: 1 µmol/L of BTK inhibitor
T3 construct: purchased Carna Biosciences
T3 sequence (Q16566 1-473): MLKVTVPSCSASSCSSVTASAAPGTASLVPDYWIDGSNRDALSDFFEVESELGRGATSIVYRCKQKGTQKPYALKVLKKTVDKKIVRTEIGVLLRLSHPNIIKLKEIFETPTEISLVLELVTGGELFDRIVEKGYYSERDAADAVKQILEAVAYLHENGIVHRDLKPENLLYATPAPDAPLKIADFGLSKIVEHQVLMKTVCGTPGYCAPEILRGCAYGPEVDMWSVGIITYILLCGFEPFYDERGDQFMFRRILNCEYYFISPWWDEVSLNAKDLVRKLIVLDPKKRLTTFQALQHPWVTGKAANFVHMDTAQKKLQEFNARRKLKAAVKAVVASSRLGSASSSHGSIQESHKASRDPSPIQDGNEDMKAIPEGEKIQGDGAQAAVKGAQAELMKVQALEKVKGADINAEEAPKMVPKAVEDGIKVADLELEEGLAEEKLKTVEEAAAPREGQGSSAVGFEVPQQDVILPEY

HIPK1 = target: T4, HIPK1 (Homo sapiens, UniProt Q86Z02); experiment: as above; type: biochemical; conditions: 1 µmol/L of BTK inhibitor
T4 construct: purchased Carna Biosciences

CDK2/CycA2 = target: T5, CDK2/CycA2 (Homo sapiens, UniProt P24941); experiment: as above; type: biochemical; conditions: 1 µmol/L of BTK inhibitor
T5 construct: purchased Carna Biosciences

CaMK2β = target: T6, CaMK2β (Homo sapiens, UniProt Q13554); experiment: as above; type: biochemical; conditions: 1 µmol/L of BTK inhibitor
T6 construct: purchased Carna Biosciences

TNK1 = target: T7, TNK1 (Homo sapiens, UniProt Q13470); experiment: as above; type: biochemical; conditions: 1 µmol/L of BTK inhibitor
T7 construct: purchased Carna Biosciences
T7 sequence (Q13470 1-666): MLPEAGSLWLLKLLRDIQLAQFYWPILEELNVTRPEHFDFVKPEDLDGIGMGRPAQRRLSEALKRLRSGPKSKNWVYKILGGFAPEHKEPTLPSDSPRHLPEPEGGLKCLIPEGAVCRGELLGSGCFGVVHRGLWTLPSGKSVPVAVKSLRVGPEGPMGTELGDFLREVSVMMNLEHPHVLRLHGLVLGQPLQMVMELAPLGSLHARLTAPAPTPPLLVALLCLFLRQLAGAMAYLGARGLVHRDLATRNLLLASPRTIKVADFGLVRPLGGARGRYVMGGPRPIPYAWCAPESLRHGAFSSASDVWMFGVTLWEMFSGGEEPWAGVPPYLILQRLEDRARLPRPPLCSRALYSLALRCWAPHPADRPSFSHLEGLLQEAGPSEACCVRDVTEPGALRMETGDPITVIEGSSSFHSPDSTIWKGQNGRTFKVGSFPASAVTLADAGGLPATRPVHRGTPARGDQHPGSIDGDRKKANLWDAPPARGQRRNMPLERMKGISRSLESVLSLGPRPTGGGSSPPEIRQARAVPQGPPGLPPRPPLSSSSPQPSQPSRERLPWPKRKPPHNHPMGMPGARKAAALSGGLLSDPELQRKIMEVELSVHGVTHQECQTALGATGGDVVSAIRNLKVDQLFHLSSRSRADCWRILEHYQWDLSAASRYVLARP

TEC = target: T8, TEC (Homo sapiens, UniProt P42680); experiment: Kinase enzyme activity assay (mobility shift assay, Carna); conditions: for Percentage inhibition of kinase enzyme activity: TEC, 1 µmol/L of BTK inhibitor
T8 sequence (P42680 1-631): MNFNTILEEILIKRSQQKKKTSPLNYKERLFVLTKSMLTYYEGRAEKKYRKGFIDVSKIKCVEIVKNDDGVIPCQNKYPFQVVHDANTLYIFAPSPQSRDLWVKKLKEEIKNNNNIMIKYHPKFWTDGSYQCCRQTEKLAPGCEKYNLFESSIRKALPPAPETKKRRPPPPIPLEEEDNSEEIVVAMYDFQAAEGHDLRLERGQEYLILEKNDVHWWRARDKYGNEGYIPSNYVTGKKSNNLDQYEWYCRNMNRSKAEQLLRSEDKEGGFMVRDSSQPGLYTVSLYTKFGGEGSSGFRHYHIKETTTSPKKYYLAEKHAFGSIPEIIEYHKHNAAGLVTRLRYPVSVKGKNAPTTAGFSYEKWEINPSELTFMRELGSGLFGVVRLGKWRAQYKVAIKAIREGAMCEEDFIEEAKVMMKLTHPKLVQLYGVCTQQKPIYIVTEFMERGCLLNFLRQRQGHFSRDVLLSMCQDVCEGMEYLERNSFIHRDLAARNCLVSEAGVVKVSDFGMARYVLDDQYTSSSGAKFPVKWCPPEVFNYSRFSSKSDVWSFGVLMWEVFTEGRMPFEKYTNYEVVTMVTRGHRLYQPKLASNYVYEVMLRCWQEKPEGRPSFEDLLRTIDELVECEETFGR

T6 sequence (Q13554 whole entry): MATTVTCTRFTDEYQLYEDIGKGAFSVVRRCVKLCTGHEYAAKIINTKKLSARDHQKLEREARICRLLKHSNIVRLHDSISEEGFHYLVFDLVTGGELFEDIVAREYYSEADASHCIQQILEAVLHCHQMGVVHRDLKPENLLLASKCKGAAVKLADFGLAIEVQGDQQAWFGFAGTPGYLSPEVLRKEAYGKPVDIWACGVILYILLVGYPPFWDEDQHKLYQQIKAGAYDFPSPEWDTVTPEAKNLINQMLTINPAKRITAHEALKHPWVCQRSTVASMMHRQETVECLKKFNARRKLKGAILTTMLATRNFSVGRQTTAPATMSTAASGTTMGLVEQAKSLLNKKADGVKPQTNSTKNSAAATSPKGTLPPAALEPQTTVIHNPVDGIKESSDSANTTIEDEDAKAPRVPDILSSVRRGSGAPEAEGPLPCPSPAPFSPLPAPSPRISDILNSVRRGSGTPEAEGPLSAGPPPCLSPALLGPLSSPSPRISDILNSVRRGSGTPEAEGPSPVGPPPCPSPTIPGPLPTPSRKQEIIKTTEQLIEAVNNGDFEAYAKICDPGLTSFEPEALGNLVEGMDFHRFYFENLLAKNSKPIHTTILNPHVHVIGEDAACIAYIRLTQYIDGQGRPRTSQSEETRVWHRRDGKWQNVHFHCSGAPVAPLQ
T4 sequence (Q86Z02 whole entry): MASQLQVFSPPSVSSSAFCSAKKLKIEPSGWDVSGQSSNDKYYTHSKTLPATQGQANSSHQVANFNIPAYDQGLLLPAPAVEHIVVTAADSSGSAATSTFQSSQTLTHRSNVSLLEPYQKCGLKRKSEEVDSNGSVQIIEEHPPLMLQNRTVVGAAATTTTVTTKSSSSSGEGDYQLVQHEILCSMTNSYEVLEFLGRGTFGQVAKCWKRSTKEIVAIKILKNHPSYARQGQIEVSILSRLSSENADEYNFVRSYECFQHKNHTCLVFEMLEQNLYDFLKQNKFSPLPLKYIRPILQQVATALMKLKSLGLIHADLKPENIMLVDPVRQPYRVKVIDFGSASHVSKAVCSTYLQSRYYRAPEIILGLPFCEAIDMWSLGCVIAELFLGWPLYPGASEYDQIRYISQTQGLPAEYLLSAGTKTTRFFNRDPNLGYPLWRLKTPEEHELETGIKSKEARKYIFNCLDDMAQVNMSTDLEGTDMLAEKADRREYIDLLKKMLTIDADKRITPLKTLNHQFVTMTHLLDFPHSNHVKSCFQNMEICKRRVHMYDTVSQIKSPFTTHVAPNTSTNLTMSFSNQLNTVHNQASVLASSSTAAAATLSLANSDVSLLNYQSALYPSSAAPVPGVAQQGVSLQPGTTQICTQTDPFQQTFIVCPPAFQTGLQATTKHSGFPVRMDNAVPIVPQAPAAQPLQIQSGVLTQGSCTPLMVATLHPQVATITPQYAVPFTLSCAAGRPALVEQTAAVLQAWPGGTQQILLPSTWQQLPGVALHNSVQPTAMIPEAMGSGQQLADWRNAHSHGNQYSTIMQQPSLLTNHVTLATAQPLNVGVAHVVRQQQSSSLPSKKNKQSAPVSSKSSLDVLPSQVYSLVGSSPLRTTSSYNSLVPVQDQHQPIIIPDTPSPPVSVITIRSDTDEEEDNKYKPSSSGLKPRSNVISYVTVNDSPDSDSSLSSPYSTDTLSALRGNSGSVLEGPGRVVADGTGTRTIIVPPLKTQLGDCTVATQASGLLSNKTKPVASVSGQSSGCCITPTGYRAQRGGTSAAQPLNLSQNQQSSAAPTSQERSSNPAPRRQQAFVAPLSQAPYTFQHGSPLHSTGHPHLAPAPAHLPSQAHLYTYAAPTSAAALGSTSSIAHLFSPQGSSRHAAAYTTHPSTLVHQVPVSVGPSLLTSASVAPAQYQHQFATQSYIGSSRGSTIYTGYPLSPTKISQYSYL
T2 sequence (Q9Y5S2 whole entry): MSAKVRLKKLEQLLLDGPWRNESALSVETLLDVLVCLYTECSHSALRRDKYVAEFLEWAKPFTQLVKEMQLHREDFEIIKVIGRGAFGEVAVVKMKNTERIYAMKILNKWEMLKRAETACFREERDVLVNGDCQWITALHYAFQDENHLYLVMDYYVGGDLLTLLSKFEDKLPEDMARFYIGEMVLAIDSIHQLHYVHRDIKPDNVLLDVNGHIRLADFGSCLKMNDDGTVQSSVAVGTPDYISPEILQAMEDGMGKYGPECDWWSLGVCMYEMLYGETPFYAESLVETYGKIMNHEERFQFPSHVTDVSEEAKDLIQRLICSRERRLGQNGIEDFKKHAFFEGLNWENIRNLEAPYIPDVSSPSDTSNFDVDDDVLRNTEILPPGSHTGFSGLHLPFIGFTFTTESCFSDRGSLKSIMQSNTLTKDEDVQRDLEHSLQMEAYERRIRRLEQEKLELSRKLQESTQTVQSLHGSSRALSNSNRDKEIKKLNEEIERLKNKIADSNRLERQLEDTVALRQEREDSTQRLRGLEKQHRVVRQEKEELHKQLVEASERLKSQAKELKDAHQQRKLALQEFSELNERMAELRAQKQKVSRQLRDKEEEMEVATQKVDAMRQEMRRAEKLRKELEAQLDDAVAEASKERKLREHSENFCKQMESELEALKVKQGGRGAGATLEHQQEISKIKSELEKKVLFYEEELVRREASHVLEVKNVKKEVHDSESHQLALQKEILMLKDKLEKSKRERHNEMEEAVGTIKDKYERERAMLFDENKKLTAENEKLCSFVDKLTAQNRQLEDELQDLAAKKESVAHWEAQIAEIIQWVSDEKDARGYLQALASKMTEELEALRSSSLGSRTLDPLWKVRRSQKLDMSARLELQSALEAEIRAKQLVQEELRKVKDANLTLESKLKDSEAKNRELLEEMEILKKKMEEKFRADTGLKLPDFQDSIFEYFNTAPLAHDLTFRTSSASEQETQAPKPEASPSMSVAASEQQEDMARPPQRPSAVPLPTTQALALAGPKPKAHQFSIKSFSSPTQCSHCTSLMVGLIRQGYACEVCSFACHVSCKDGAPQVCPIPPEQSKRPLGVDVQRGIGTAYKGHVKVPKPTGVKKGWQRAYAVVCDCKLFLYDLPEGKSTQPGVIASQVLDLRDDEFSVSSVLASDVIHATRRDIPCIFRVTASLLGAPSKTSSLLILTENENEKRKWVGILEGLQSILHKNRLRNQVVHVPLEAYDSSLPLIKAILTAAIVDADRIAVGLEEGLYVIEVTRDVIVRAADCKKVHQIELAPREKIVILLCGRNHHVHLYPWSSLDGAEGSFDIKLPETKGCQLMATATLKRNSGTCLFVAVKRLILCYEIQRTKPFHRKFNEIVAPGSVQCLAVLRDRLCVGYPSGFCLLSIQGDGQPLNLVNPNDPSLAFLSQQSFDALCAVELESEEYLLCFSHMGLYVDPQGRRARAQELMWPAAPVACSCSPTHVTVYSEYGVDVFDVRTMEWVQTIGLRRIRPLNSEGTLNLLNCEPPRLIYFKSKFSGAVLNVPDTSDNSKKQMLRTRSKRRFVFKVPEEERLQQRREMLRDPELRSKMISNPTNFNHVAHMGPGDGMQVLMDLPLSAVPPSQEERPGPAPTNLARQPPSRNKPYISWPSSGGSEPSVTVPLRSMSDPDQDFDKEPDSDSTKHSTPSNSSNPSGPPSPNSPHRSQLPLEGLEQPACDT

| Structure (SMILES) | Percentage inhibition of kinase enzyme activity (TBK1) [%] | Percentage inhibition of kinase enzyme activity (MRCKβ) [%] | Percentage inhibition of kinase enzyme activity (CaMK4) [%] | Percentage inhibition of kinase enzyme activity (HIPK1) [%] | Percentage inhibition of kinase enzyme activity (CDK2/CycA2) [%] | Percentage inhibition of kinase enzyme activity (CaMK2β) [%] | Percentage inhibition of kinase enzyme activity (TNK1) [%] | Percentage inhibition of kinase enzyme activity (TEC) [%] | pIC50 (TEC) | inhibition at 1 µM (TEC; read-out: Inhibition of TEC) [%] |
| --- | --- | --- | --- | --- | --- | --- | --- | --- | --- | --- |
| CC#CC(=O)N1CCC[C@H]1c1nc(-c2ccc(C(=O)Nc3ccccn3)cc2)c2c(N)nccn12 [acalabrutinib] | 2.14 | -15.91 | -8.42 | -14.56 | -5.19 | -1.09 | -1.80 | 95.77 |  |  |
| C=CC(=O)N1CCC[C@@H](n2nc(-c3ccc(Oc4ccccc4)cc3)c3c(N)ncnc32)C1 [ibrutinib] | 0.83 | -7.55 | 2.93 | 4.26 | -11.88 | -2.56 | 6.17 | 91.92 |  |  |
| O=C(c1ccc(Oc2ccccc2)cc1Cl)c1c[nH]c2ncnc(N[C@@H]3CC[C@@H](CO)OC3)c12 [nemtabrutinib] | 1.71 | -5.25 | 5.83 | 2.16 | -1.69 | 2.18 | 75.62 | 98.70 | 9.12 |  |
| COc1ccc(F)cc1C(=O)NCc1ccc(-c2nn([C@@H](C)C(F)(F)F)c(N)c2C(N)=O)cc1 [pirtobrutinib] | 2.58 | 0.61 | -9.89 | 2.97 | -4.56 | -2.89 | 3.07 | 87.84 |  | > 75 |
